From article PMC10761937, “Functional engineering of human iPSC‐derived parasympathetic neurons enhances responsiveness to gastrointestinal hormones” (FEBS Open Bio, 2023)

Tested on: NPY2R‐neurons
Assay: Ca^2+ imaging, NPY2R‐neurons (iPSC‐derived)
Format: cell-based, human
Protocol: Before initiating differentiation, the iPSCs (1–2 × 10^5 cells·cm^−2; Cell lines and cell culture section) were transferred to 6‐well plates (Corning, Inc., Corning, NY, USA) coated with 2‐methacryloyloxyethyl phosphorylcholine (MPC) polymer (Lipidure CM5206E; NOF, Tokyo, Japan). The cells were maintained in mTeSR1 cGMP medium containing 10 μM Y‐27632 (Fujifilm Wako Pure Chemical Industries) for 2 or 3 days to form embryoid body (EBs) in a rotary shaker at 95 r.p.m. (OS‐762RC; Optime, Tokyo, Japan). Subsequently, iPSCs were differentiated into neural crest cells (NCCs), as previously reported. Briefly, NCCs were induced from Ebs using knockout serum replacement (KSR) medium and N2 medium with graded addition of nerve growth factors and signaling factors. KSR medium was composed of DMEM‐F12 (Fujifilm Wako Pure Chemical Industries), 20% KSR (Thermo Fisher Scientific), 1% NEAA, 1% monothioglycerol (Fujifilm Wako Pure Chemical Industries), and 1% P/S. N2 medium consisted of DMEM‐F12, 1% N2 supplement (Fujifilm Wako Pure Chemical Industries), 1% NEAA, and 1% P/S. When EB formation was considered day 0 of induction, the medium was changed at days 2, 5, 7, 9, and 12. […]

Q: For “PYY: PYY (4400‐v; Peptide Institute, Inc.); PYY (3–36) in Ca2+ imaging”, which “Intracellular Ca^2+ concentration (traces)” value (100 nM PYY (PYY (3–36) in method), NPY2R‐neurons day 35, Fluo‐8 AM, Fig. S5C) is on record?
A: increased intracellular Ca^2+ concentration

Q: What about the “Fluorescence intensity (ΔF stim/F 0)” value (PYY, 10 nM per Fig. 6 legend (100 nM in text and Fig. S5C), day 35, n = 10, Student's t‐test vs. 0 nM, Fig. 6E) of the same substance?
A: significantly increased fluorescence intensity
